Results: PubChem BioAssay AID2060887 (Molecular Pharmacology Branch, DTP, NCI, 2025)

Tested on: 782815-120-R-J1-PDC complex spheroid viability
Assay: Anticancer human tumor 782815-120-R-J1-PDC patient-derived colon adenocarcinoma cell line growth inhibition [RAS]
Conditions: for IC50: curve of first compound; for viability, T/C: stronger effect = lower value; active = viability on the fitted dose curve at most 10% of control; inactive = the rest
Description: RAS pathway inhibitors in Combinations in Complex Spheroids
A high-throughput screen of multi-cell type tumor spheroids was designed to identify active combinations of RAS pathway inhibitors and targeted small molecules. Complex spheroids include a stromal component modeled by human endothelial cells (HUVEC) and fibroblasts modeled by human mesenchymal stem cells (MSCs). The concentration ranges selected for each drug and investigational agent were based upon clinically achievable concentrations if the clinical Cmax of the agent was known.
Compounds. The drugs and investigational agents: abemaciclib (NSC768073), cobimetinib (NSC768068), divarasib (GDC6063, NSC841802), docetaxel (NSC628503), GDC-1971 (RLY-1971, NSC841576), gemcitabine (NSC613327), inavolisib (NSC800729), ipatasertib (NSC767898), KB-0742 (NSC834161), MRTX-1133 (NSC836407), osimertinib (NSC779217), RMC-4630 (NSC839698), RMC-6236 (NSC851965), RMC-6291 (NSC852671), Ro-3306 (NSC812927), sapanisertib (NSC764658), SN-38 (NSC673596), staurosporine (NSC755774), SY5609 (NSC837396), and tovorafenib (DAY101, NSC766906), were obtained from the National Cancer Institute (NCI) Developmental Therapeutics Program Chemical Repository. The FDA-approved anticancer drug set is available from the NCI Developmental Therapeutics Program. […] The stock solutions were prepared in dimethyl sulfoxide (DMSO, Sigma-Aldrich, St. Louis, MO, cat. D2650) at 800-fold the tested concentration and stored at -70 degrees C prior to their use. All drugs and investigational agents were tested over a range starting from a high concentration at or near the clinical Cmax and decreasing in half-log increments. If the clinical Cmax for an agent had not been determined, the highest concentration tested was 10 microM.
Cell Culture. All cells were maintained in an incubator at 37 degrees C and 5% CO2 with 95% humidity. The PDC lines were cultured according to standard operating procedures established by the NCI PDMR. All PDCs were thawed and cultured in Matrigel-coated flasks prepared with a working solution of 1X Ham's F-12 nutrient mix, without supplementation (Invitrogen, Waltham, MA, cat. 11765054), 100 U/mL penicillin-streptomycin (Invitrogen, cat. 15140122), and 2.5% Matrigel (Corning Inc., Corning, NY, cat. 354248) for the first three passages. The 362531-283-R-J2-PDC and 782815-120-R-J1-PDC lines were cultured in 6C/Colon 1B media, which includes advanced DMEM/F-12 (Thermo Fisher Scientific, cat. 12634028), 10 mM HEPES (Thermo Fisher Scientific, cat. 15630080), 1X GlutaMAX supplement (Thermo Fisher Scientific, cat. 35050061), 0.1 mg/mL primocin (InvivoGen, San Diego, CA, cat. ant-pm-2), 10% defined fetal bovine serum, heat inactivated (HyClone Laboratories Inc., Logan, UT, cat. SH30070.03HI), 50% L-WRN conditioned media (ATCC, cat. CRL-3276), 1.25 mM N-Acetyl-L-cysteine (Sigma-Aldrich, cat. A9165), 10 mM nicotinamide (Sigma-Aldrich, cat. N0636), 1X B-27 supplement (Thermo Fisher Scientific, cat. 17504044), 1X N-2 supplement (Thermo Fisher Scientific, cat. 17502048), 50 ng/mL human EGF (Thermo Fisher Scientific, cat. PHG0311), and 10 microM Y-27632 dihydrochloride (Tocris Bioscience, cat. 1254). The K12877-001-R-J1-PDC line was cultured in 6I media, which includes all 6C/Colon 1B media plus 10 ng/mL human FGF-10 (PeproTech, cat. 100-26), 1 ng/mL human FGF-2 (PeproTech, cat. 100-18B), 1 µM prostaglandin E2 (Tocris Bioscience, cat. 2296), […] hydrocortisone (Sigma-Aldrich, cat. H4001), and […] bovine insulin (Sigma-Aldrich, cat. I6634). The K86415-001-R-J1-PDC line was cultured in 6D media, which includes all 6C/Colon 1B media components minus the L-WRN conditioned media. The 485176-168-R4-J1-PDC was cultured in PANC media, which includes all 6C/Colon 1B media plus 100 ng/mL human FGF-10 (PeproTech, cat. 100-26), 500 nM SB-431542 (Selleckchem, cat. S1067), and 10 nM gastrin (Tocris Bioscience, cat. 3006). […]

[1] = second compound 0.0316 µM, first compound 0.0316 µM
[2] = second compound 0.0316 µM, first compound 0.1 µM
[3] = second compound 0.0316 µM, first compound 0.316 µM
[4] = second compound 0.0316 µM, first compound 1 µM
[5] = second compound 0.1 µM, first compound 0.0316 µM
[6] = second compound 0.1 µM, first compound 0.1 µM
[7] = second compound 0.1 µM, first compound 0.316 µM
[8] = second compound 0.1 µM, first compound 1 µM
[9] = second compound 0.316 µM, first compound 0.0316 µM
[10] = second compound 0.316 µM, first compound 0.1 µM
[11] = second compound 0.316 µM, first compound 0.316 µM
[12] = second compound 0.316 µM, first compound 1 µM
[13] = second compound 1 µM, first compound 0.0316 µM
[14] = second compound 1 µM, first compound 0.1 µM
[15] = second compound 1 µM, first compound 0.316 µM
[16] = second compound 1 µM, first compound 1 µM
[17] = second compound 3.16 µM, first compound 0.0316 µM
[18] = second compound 3.16 µM, first compound 0.1 µM
[19] = second compound 3.16 µM, first compound 0.316 µM
[20] = second compound 3.16 µM, first compound 1 µM
[21] = second compound 10 µM, first compound 0.0316 µM
[22] = second compound 10 µM, first compound 0.1 µM
[23] = second compound 10 µM, first compound 0.316 µM
[24] = second compound 10 µM, first compound 1 µM
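Note: spheroids exposed to compounds for 7 days before reading.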

CC(=O)OC12COC1CC(O)C1(C)C(=O)C(O)C3=C(C)C(OC(=O)C(O)C(NC(=O)OC(C)(C)C)c4ccccc4)CC(O)(C(OC(=O)c4ccccc4)C21)C3(C)C (centres undefined) + C#Cc1c(F)ccc2cc(O)cc(-c3ncc4c(N5CC6CCC(C5)N6)nc(OCC56CCCN5CC(F)C6)nc4c3F)c12
inactive: viability, T/C [1] 34.4% | viability, T/C [2] 32.9% | viability, T/C [3] 30.1% | viability, T/C [4] 24.4% | viability, T/C (second compound 0.0316 µM, first compound 3.16 µM) 30.8% | viability, T/C (second compound 0.0316 µM, first compound 10 µM) 34.9% | viability, T/C [5] 39.7% | viability, T/C [6] 34.5% | viability, T/C [7] 29.2% | viability, T/C [8] 21.6% | viability, T/C (second compound 0.1 µM, first compound 3.16 µM) 32.2% | viability, T/C (second compound 0.1 µM, first compound 10 µM) 31% | viability, T/C [9] 38.8% | viability, T/C [10] 33.4% | viability, T/C [11] 25.9% | viability, T/C [12] 28.6% | viability, T/C (second compound 0.316 µM, first compound 3.16 µM) 31.9% | viability, T/C (second compound 0.316 µM, first compound 10 µM) 29.5% | viability, T/C [13] 36.5% | viability, T/C [14] 32.3% | viability, T/C [15] 30.5% | viability, T/C [16] 27.2% | viability, T/C (second compound 1 µM, first compound 3.16 µM) 33.7% | viability, T/C (second compound 1 µM, first compound 10 µM) 33.4% | viability, T/C [17] 35.4% | viability, T/C [18] 34.4% | viability, T/C [19] 35.5% | viability, T/C [20] 27.5% | viability, T/C (second compound 3.16 µM, first compound 3.16 µM) 28.3% | viability, T/C (second compound 3.16 µM, first compound 10 µM) 34.2% | viability, T/C [21] 35.7% | viability, T/C [22] 29.2% | viability, T/C [23] 26.8% | viability, T/C [24] 36% | viability, T/C (second compound 10 µM, first compound 3.16 µM) 29.9% | viability, T/C (second compound 10 µM, first compound 10 µM) 32.8%
< 31.6 nM: IC50 (second compound 0.0316 µM) | IC50 (second compound 0.1 µM) | IC50 (second compound 0.316 µM) | IC50 (second compound 1 µM) | IC50 (second compound 3.16 µM) | IC50 (second compound 10 µM)

Nc1ccn(C2OC(CO)C(O)C2(F)F)c(=O)n1 (centres undefined) + C#Cc1c(F)ccc2cc(O)cc(-c3ncc4c(N5CC6CCC(C5)N6)nc(OCC56CCCN5CC(F)C6)nc4c3F)c12
inactive: viability, T/C (second compound 0.0316 µM, first compound 0.00316 µM) 103% | viability, T/C (second compound 0.0316 µM, first compound 0.01 µM) 92.8% | viability, T/C [1] 64.8% | viability, T/C [2] 54% | viability, T/C [3] 31.3% | viability, T/C [4] 28.6% | viability, T/C (second compound 0.1 µM, first compound 0.00316 µM) 101% | viability, T/C (second compound 0.1 µM, first compound 0.01 µM) 91.1% | viability, T/C [5] 62.3% | viability, T/C [6] 47.8% | viability, T/C [7] 29.6% | viability, T/C [8] 26.3% | viability, T/C (second compound 0.316 µM, first compound 0.00316 µM) 97.8% | viability, T/C (second compound 0.316 µM, first compound 0.01 µM) 92.2% | viability, T/C [9] 58.7% | viability, T/C [10] 50.2% | viability, T/C [11] 37.1% | viability, T/C [12] 25.3% | viability, T/C (second compound 1 µM, first compound 0.00316 µM) 97.9% | viability, T/C (second compound 1 µM, first compound 0.01 µM) 81.9% | viability, T/C [13] 60.6% | viability, T/C [14] 43.5% | viability, T/C [15] 38.1% | viability, T/C [16] 26.7% | viability, T/C (second compound 3.16 µM, first compound 0.00316 µM) 96.8% | viability, T/C (second compound 3.16 µM, first compound 0.01 µM) 89.7% | viability, T/C [17] 63.1% | viability, T/C [18] 49% | viability, T/C [19] 36.2% | viability, T/C [20] 28.1% | viability, T/C (second compound 10 µM, first compound 0.00316 µM) 101% | viability, T/C (second compound 10 µM, first compound 0.01 µM) 95.2% | viability, T/C [21] 61.9% | viability, T/C [22] 42% | viability, T/C [23] 35.6% | viability, T/C [24] 27.1%
62.7 nM: IC50 (second compound 10 µM)
71.4 nM: IC50 (second compound 1 µM)
73.9 nM: IC50 (second compound 0.1 µM)
94.2 nM: IC50 (second compound 0.0316 µM)
85.8 nM: IC50 (second compound 3.16 µM)
85.2 nM: IC50 (second compound 0.316 µM)
